Source: patent US20230085307A1, “PYRIDAZINONE COMPOUND AND HERBICIDE” (NISSAN CHEMICAL CORPORATION, priority 2019, published 2023)

How the values were obtained:
late watergrass = experiment: Test Example 1: herbicidal activity, application before weed generation under submerged conditions (Table 16, symbol A); assay type: in vivo, late watergrass (Echinochloa oryzicola); settings: for Herbicidal effect on A: late watergrass (grade 0-5): 320 g/ha applied herbicide
Method in brief: (§1)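 Emulsion formulation, water-diluted to set dose, was put onto the flooded surface (4 cm depth, alluvial soil) the same day weeds were sown and 2.5-leaf rice transplanted. After 3 weeks at 25-30 °C under glass, each species was rated 0 (≤5% kill) to 5 (≥90% kill).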

Japanese bulrush = experiment: Test Example 1: herbicidal activity, application before weed generation under submerged conditions (Table 16, symbol B); assay type: in vivo, Japanese bulrush (Schoenoplectus juncoides); settings: for Herbicidal effect on B: Japanese bulrush (grade 0-5): 320 g/ha applied herbicide
Method in brief: as §1

oval-leafed pondweed = experiment: Test Example 1: herbicidal activity, application before weed generation under submerged conditions (Table 16, symbol C); assay type: in vivo, oval-leafed pondweed (Monochoria vaginalis); settings: for Herbicidal effect on C: oval-leafed pondweed (grade 0-5): 320 g/ha applied herbicide
Method in brief: as §1

barnyard grass [1] = experiment: Test Example 3: herbicidal effect by foliage application, Wagner pot (Table 18, symbol H); assay type: in vivo, barnyard grass (Echinochloa crus-galli)
Method in brief: (§2)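 Plants were sown in alluvial soil held under 0.1–0.5 cm standing water and grown 14 days in a greenhouse at 25–30 °C. An emulsifiable formulation, water-diluted to the set dose, was then sprayed onto the foliage, and effects were scored three weeks later using previously defined criteria.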

Chinese sprangletop = experiment: Test Example 3: herbicidal effect by foliage application, Wagner pot (Table 18, symbol D); assay type: in vivo, chinese sprangletop (Leptochloa chinensis)
Method in brief: as §2

rice flat sedge = experiment: Test Example 3: herbicidal effect by foliage application, Wagner pot (Table 18, symbol E); assay type: in vivo, rice flat sedge (Cyperus iria)
Method in brief: as §2

southern crabgrass = experiment: Test Example 5: herbicidal effect by foliage application, plastic box (Table 20, symbol F); assay type: in vivo, southern crabgrass (Digitaria ciliaris); settings: foliage application; for herbicidal effect on F: southern crabgrass: evaluated three weeks after application
Method in brief: (§3)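 Foliar spray test: emulsion formulation diluted in water to a set application rate, sprayed onto 14-day-old plants raised in diluvial soil at 25° C to 30° C under glass. Both herbicidal effect and crop effect rated visually three weeks later.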

green foxtail = experiment: Test Example 5: herbicidal effect by foliage application, plastic box (Table 20, symbol G); assay type: in vivo, green foxtail (Setaria viridis); settings: foliage application; for herbicidal effect on G: green foxtail: evaluated three weeks after application
Method in brief: as §3

barnyard grass [2] = experiment: Test Example 5: herbicidal effect by foliage application, plastic box (Table 20, symbol H); assay type: in vivo, barnyard grass (Echinochloa crus-galli); settings: foliage application; for herbicidal effect on H: barnyard grass: evaluated three weeks after application
Method in brief: as §3

wild oat = experiment: Test Example 5: herbicidal effect by foliage application, plastic box (Table 20, symbol I); assay type: in vivo, wild oat (Avena fatua); settings: foliage application; for herbicidal effect on I: wild oat: evaluated three weeks after application
Method in brief: as §3

blackgrass = experiment: Test Example 5: herbicidal effect by foliage application, plastic box (Table 20, symbol J); assay type: in vivo, blackgrass (Alopecurus myosuroides); settings: foliage application; for herbicidal effect on J: blackgrass: evaluated three weeks after application
Method in brief: as §3

Italian ryegrass = experiment: Test Example 5: herbicidal effect by foliage application, plastic box (Table 20, symbol K); assay type: in vivo, Italian ryegrass (Lolium multiflorum); settings: foliage application; for herbicidal effect on K: Italian ryegrass: evaluated three weeks after application
Method in brief: as §3

windgrass = experiment: Test Example 5: herbicidal effect by foliage application, plastic box (Table 20, symbol L); assay type: in vivo, windgrass (Apera spica-venti); settings: foliage application; for herbicidal effect on L: windgrass: evaluated three weeks after application
Method in brief: as §3

velvetleaf = experiment: Test Example 5: herbicidal effect by foliage application, plastic box (Table 20, symbol M); assay type: in vivo, velvetleaf (Abutilon theophrasti); settings: foliage application; for herbicidal effect on M: velvetleaf: evaluated three weeks after application
Method in brief: as §3

redroot pigweed = experiment: Test Example 5: herbicidal effect by foliage application, plastic box (Table 20, symbol N); assay type: in vivo, redroot pigweed (Amaranthus retroflexus); settings: foliage application; for herbicidal effect on N: redroot pigweed: evaluated three weeks after application
Method in brief: as §3

lambsquarters = experiment: Test Example 5: herbicidal effect by foliage application, plastic box (Table 20, symbol O); assay type: in vivo, lambsquarters (Chenopodium album); settings: foliage application; for herbicidal effect on O: lambsquarters: evaluated three weeks after application
Method in brief: as §3

chickweed = experiment: Test Example 5: herbicidal effect by foliage application, plastic box (Table 20, symbol P); assay type: in vivo, common chickweed (Stellaria media); settings: foliage application; for herbicidal effect on P: chickweed: evaluated three weeks after application
Method in brief: as §3

persian speedwell = experiment: Test Example 5: herbicidal effect by foliage application, plastic box (Table 20, symbol R); assay type: in vivo, Persian speedwell (Veronica persica); settings: foliage application; for herbicidal effect on R: persian speedwell: evaluated three weeks after application
Method in brief: as §3

[3] = AAH 320 g/ha, three weeks after application
[4] = amount of applied herbicide 320 g/ha
[5] = 320 g/ha, three weeks after application

| Structure (SMILES) | Herbicidal effect on A: late watergrass (grade 0-5) (late watergrass) | Herbicidal effect on B: Japanese bulrush (grade 0-5) (Japanese bulrush) | Herbicidal effect on C: oval-leafed pondweed (grade 0-5) (oval-leafed pondweed) | herbicidal effect on H (barnyard grass), rating 0-5 (barnyard grass [1]; 320 g/ha) | herbicidal effect on D (Chinese sprangletop), rating 0-5 (Chinese sprangletop; 320 g/ha) | herbicidal effect on E (rice flat sedge), rating 0-5 (rice flat sedge; 320 g/ha) | herbicidal effect on F: southern crabgrass (southern crabgrass; 320 g/ha) | herbicidal effect on G: green foxtail (green foxtail; 320 g/ha) | herbicidal effect on H: barnyard grass (barnyard grass [2]; 320 g/ha) | herbicidal effect on I: wild oat (wild oat; 320 g/ha) | herbicidal effect on J: blackgrass (blackgrass; 320 g/ha) | herbicidal effect on K: Italian ryegrass (Italian ryegrass; 320 g/ha) | herbicidal effect on L: windgrass (windgrass; 320 g/ha) | herbicidal effect on M: velvetleaf (velvetleaf; 320 g/ha) | herbicidal effect on N: redroot pigweed (redroot pigweed; 320 g/ha) | herbicidal effect on O: lambsquarters (lambsquarters; 320 g/ha) | herbicidal effect on P: chickweed (chickweed; 320 g/ha) | herbicidal effect on R: persian speedwell (persian speedwell; 320 g/ha) | other results |
| --- | --- | --- | --- | --- | --- | --- | --- | --- | --- | --- | --- | --- | --- | --- | --- | --- | --- | --- | --- |
| COc1cccc(Cl)c1-c1sc2ccccc2c1-c1c(O)c(C)nn(C)c1=O [1-159] | 2 (Herbicidal rate of 20% or more and less than 40%) | 0 (Herbicidal rate of 5% or less (almost no effect)) | 0 (Herbicidal rate of 5% or less (almost no effect)) | 2 (Herbicidal rate of 20% or more and less than 40%) | 0 (Herbicidal rate of 5% or less (almost no effect)) | 0 (Herbicidal rate of 5% or less (almost no effect)) | – | – | – | – | – | – | – | – | – | – | – | – | F: southern crabgrass, herbicidal effect (southern crabgrass; [3]): 0 (Herbicidal rate of 5% or less (almost no effect)); G: green foxtail, herbicidal effect (green foxtail; [3]): 0 (Herbicidal rate of 5% or less (almost no effect)); H: barnyard grass, herbicidal effect (barnyard grass [2]; [3]): 0 (Herbicidal rate of 5% or less (almost no effect)); I: wild oat, herbicidal effect (wild oat; [3]): 0 (Herbicidal rate of 5% or less (almost no effect)); J: blackgrass, herbicidal effect (blackgrass; [3]): 0 (Herbicidal rate of 5% or less (almost no effect)); K: Italian ryegrass, herbicidal effect (Italian ryegrass; [3]): 0 (Herbicidal rate of 5% or less (almost no effect)); L: windgrass, herbicidal effect (windgrass; [3]): 0 (Herbicidal rate of 5% or less (almost no effect)); M: velvetleaf, herbicidal effect (velvetleaf; [3]): 0 (Herbicidal rate of 5% or less (almost no effect)); N: redroot pigweed, herbicidal effect (redroot pigweed; [3]): 0 (Herbicidal rate of 5% or less (almost no effect)); O: lambsquarters, herbicidal effect (lambsquarters; [3]): 0 (Herbicidal rate of 5% or less (almost no effect)); P: chickweed, herbicidal effect (chickweed; [3]): 5 (Herbicidal rate of 90% or more (almost completely withered)); R: persian speedwell, herbicidal effect (persian speedwell; [3]): 5 (Herbicidal rate of 90% or more (almost completely withered)) |
| COCCOCOc1c(C)nn(C)c(=O)c1-c1c(-c2ccc(OCC(=O)OC)cc2)sc2ccc(F)cc12 [2-071] | 3 (Herbicidal rate of 40% or more and less than 70%) | 0 (Herbicidal rate of 5% or less (almost no effect)) | 0 (Herbicidal rate of 5% or less (almost no effect)) | 2 (Herbicidal rate of 20% or more and less than 40%) | 3 (Herbicidal rate of 40% or more and less than 70%) | 2 (Herbicidal rate of 20% or more and less than 40%) | 0 (Herbicidal rate of 5% or less (almost no effect)) | 0 (Herbicidal rate of 5% or less (almost no effect)) | 0 (Herbicidal rate of 5% or less (almost no effect)) | 0 (Herbicidal rate of 5% or less (almost no effect)) | 0 (Herbicidal rate of 5% or less (almost no effect)) | 0 (Herbicidal rate of 5% or less (almost no effect)) | 0 (Herbicidal rate of 5% or less (almost no effect)) | 0 (Herbicidal rate of 5% or less (almost no effect)) | 4 (Herbicidal rate of 70% or more and less than 90%) | 3 (Herbicidal rate of 40% or more and less than 70%) | 3 (Herbicidal rate of 40% or more and less than 70%) | 0 (Herbicidal rate of 5% or less (almost no effect)) | – |
| CCCC(=O)Oc1c(C)nn(C)c(=O)c1-c1c(-c2ccc(Oc3ccccc3)cc2)sc2ccc(F)cc12 [2-073] | 3 (Herbicidal rate of 40% or more and less than 70%) | 0 (Herbicidal rate of 5% or less (almost no effect)) | 0 (Herbicidal rate of 5% or less (almost no effect)) | 4 (Herbicidal rate of 70% or more and less than 90%) | 3 (Herbicidal rate of 40% or more and less than 70%) | 3 (Herbicidal rate of 40% or more and less than 70%) | 0 (Herbicidal rate of 5% or less (almost no effect)) | 2 (Herbicidal rate of 20% or more and less than 40%) | 1 (Herbicidal rate of 5% or more and less than 20%) | 0 (Herbicidal rate of 5% or less (almost no effect)) | 0 (Herbicidal rate of 5% or less (almost no effect)) | 0 (Herbicidal rate of 5% or less (almost no effect)) | 0 (Herbicidal rate of 5% or less (almost no effect)) | 3 (Herbicidal rate of 40% or more and less than 70%) | 3 (Herbicidal rate of 40% or more and less than 70%) | 3 (Herbicidal rate of 40% or more and less than 70%) | 5 (Herbicidal rate of 90% or more (almost completely withered)) | 4 (Herbicidal rate of 70% or more and less than 90%) | – |
| COc1ccc(Br)cc1-c1sc2ccc(Br)cc2c1-c1c(O)c(C)nn(C)c1=O [2-129] | 5 (Herbicidal rate of 90% or more (almost completely withered)) | 0 (Herbicidal rate of 5% or less (almost no effect)) | 0 (Herbicidal rate of 5% or less (almost no effect)) | – | – | – | 0 (Herbicidal rate of 5% or less (almost no effect)) | 0 (Herbicidal rate of 5% or less (almost no effect)) | 0 (Herbicidal rate of 5% or less (almost no effect)) | 0 (Herbicidal rate of 5% or less (almost no effect)) | 0 (Herbicidal rate of 5% or less (almost no effect)) | 0 (Herbicidal rate of 5% or less (almost no effect)) | 0 (Herbicidal rate of 5% or less (almost no effect)) | 0 (Herbicidal rate of 5% or less (almost no effect)) | 0 (Herbicidal rate of 5% or less (almost no effect)) | 2 (Herbicidal rate of 20% or more and less than 40%) | 0 (Herbicidal rate of 5% or less (almost no effect)) | 0 (Herbicidal rate of 5% or less (almost no effect)) | herbicidal effect on H: barnyard grass (barnyard grass [1]; [4]): 3 (Herbicidal rate of 40% or more and less than 70%); herbicidal effect on D: Chinese sprangletop (Chinese sprangletop; [4]): 0 (Herbicidal rate of 5% or less (almost no effect)); herbicidal effect on E: rice flat sedge (rice flat sedge; [4]): 0 (Herbicidal rate of 5% or less (almost no effect)) |
| COc1ccccc1-c1sc2cc(CO)ccc2c1-c1c(O)c(C)nn(C)c1=O [3-135] | – | – | – | – | – | – | – | – | – | – | – | – | – | – | – | – | – | – | Herbicidal effect, A: late watergrass (late watergrass; [4]): 2 (Herbicidal rate of 20% or more and less than 40%); Herbicidal effect, B: Japanese bulrush (Japanese bulrush; [4]): 2 (Herbicidal rate of 20% or more and less than 40%); Herbicidal effect, C: oval-leafed pondweed (oval-leafed pondweed; [4]): 0 (Herbicidal rate of 5% or less (almost no effect)); herbicidal effect on barnyard grass (H) (barnyard grass [1]; 320 g/ha): 4 (Herbicidal rate of 70% or more and less than 90%); herbicidal effect on Chinese sprangletop (D) (Chinese sprangletop; 320 g/ha): 3 (Herbicidal rate of 40% or more and less than 70%); herbicidal effect on rice flat sedge (E) (rice flat sedge; 320 g/ha): 2 (Herbicidal rate of 20% or more and less than 40%); F: southern crabgrass, herbicidal effect grade (southern crabgrass; [5]): 4 (Herbicidal rate of 70% or more and less than 90%); G: green foxtail, herbicidal effect grade (green foxtail; [5]): 5 (Herbicidal rate of 90% or more (almost completely withered)); H: barnyard grass, herbicidal effect grade (barnyard grass [2]; [5]): 3 (Herbicidal rate of 40% or more and less than 70%); I: wild oat, herbicidal effect grade (wild oat; [5]): 4 (Herbicidal rate of 70% or more and less than 90%); J: blackgrass, herbicidal effect grade (blackgrass; [5]): 3 (Herbicidal rate of 40% or more and less than 70%); K: Italian ryegrass, herbicidal effect grade (Italian ryegrass; [5]): 3 (Herbicidal rate of 40% or more and less than 70%); L: windgrass, herbicidal effect grade (windgrass; [5]): 2 (Herbicidal rate of 20% or more and less than 40%); M: velvetleaf, herbicidal effect grade (velvetleaf; [5]): 3 (Herbicidal rate of 40% or more and less than 70%); N: redroot pigweed, herbicidal effect grade (redroot pigweed; [5]): 4 (Herbicidal rate of 70% or more and less than 90%); O: lambsquarters, herbicidal effect grade (lambsquarters; [5]): 2 (Herbicidal rate of 20% or more and less than 40%); P: chickweed, herbicidal effect grade (chickweed; [5]): 4 (Herbicidal rate of 70% or more and less than 90%); R: persian speedwell, herbicidal effect grade (persian speedwell; [5]): 4 (Herbicidal rate of 70% or more and less than 90%) |
